Test results: ChEMBL document CHEMBL4431334, “Occupying a flat subpocket in a tRNA-modifying enzyme with ordered or disordered side chains: Favorable or unfavorable for binding?” (Bioorg Med Chem, 2016)
pKd, pKi: −log10 of the molar value.

Assays:
[1] = Binding affinity to Zymomonas mobilis tRNA guanine transglycosylase assessed as inhibition of [8-3H]guanine incorporation into Escherichia coli tRNA Tyr at position G34 preincubated for 10 mins followed by tRNA Tyr/[8-3H]guanine addition measured after 30 mins by liquid scintillation counting
[2] = Binding affinity to Zymomonas mobilis tRNA guanine transglycosylase by isothermal titration calorimetry

| pKd [2] | SMILES | pKi [1] |
| --- | --- | --- |
|  | Nc1nc2cc3nc(NCCc4ccc(CCO)cc4)[nH]c3cc2c(=O)[nH]1 | 8.15 |
|  | COC(=O)c1ccc(CCNc2nc3cc4nc(N)[nH]c(=O)c4cc3[nH]2)cc1 | 8.70 |
| 7.25 | Nc1nc2cc3nc(NCCc4ccccc4)[nH]c3cc2c(=O)[nH]1 | 8.00 |
| 7.53 | Nc1nc2cc3nc(NCCc4ccc(C(=O)O)cc4)[nH]c3cc2c(=O)[nH]1 | 7.52 |
|  | N#Cc1ccc(CCNc2nc3cc4nc(N)[nH]c(=O)c4cc3[nH]2)cc1 | 7.68 |
